Assay results published in PubChem BioAssay AID1259408 (Genetic Toxicology Data Bank (GENE-TOX), 2018).
The source made the active and inactive calls. The rule behind the calls is not given here.

Tested on: GENE-TOX genotoxicity assays, various organisms and cells
Assay: GENE-TOX mutagenicity studies
Conditions: for call: Assay Type: In vivo carcinogenicity studies
Excerpt: GENE-TOX provides genetic toxicology (mutagenicity) test data from expert peer review of open scientific literature for more than 3,000 chemicals from the United States Environmental Protection Agency (EPA). GENE-TOX was established to select assay systems for evaluation, review data in the scientific literature, and recommend proper testing protocols and evaluation procedures for these systems.
GENE-TOX covers the years 1991 - 1998. It is no longer updated.
This is an archive assay for GENE-TOX mutagenicity studies.

[1] = Species/Cell Type: Mammalian polychromatic erythrocytes, Assay Type: Micronucleus test, chromosome aberrations, Assay Code: MNTT, Evaluation Type: Evaluation B (Post-1980)
[2] = Species/Cell Type: Nonhuman, Assay Type: Sister-chromatid exchange (SCE) in vivo, Assay Code: SC3T, Evaluation Type: Evaluation B (Post-1980)
[3] = Species/Cell Type: Salmonella typhimurium (one or more of the five standard strains: TA98, TA100, TA1535, TA1537, and TA1538), Assay Type: Histidine reverse gene mutation, Ames assay, Assay Code: SAL+, Evaluation Type: Evaluation A (Pre-1980)
[4] = Species/Cell Type: Escherichia coli polA (W3119 vs P3478), Assay Type: Rec-assay, DNA effects (bacterial DNA repair), Assay Code: RE1+, Evaluation Type: Evaluation A (Pre-1980)
[5] = Species/Cell Type: Saccharomyces cerevisiae, Assay Type: Mitotic recombination or gene conversion, Assay Code: YEH+, Evaluation Type: Evaluation A (Pre-1980)
[6] = Species/Cell Type: Drosophila melanogaster, Sex: Male, Assay Type: Heritable translocation test, chromosome aberrations, Assay Code: DHTT, Evaluation Type: Evaluation A (Pre-1980)
[7] = Species/Cell Type: Mammalian polychromatic erythrocytes, Assay Type: Micronucleus test, chromosome aberrations, Assay Code: MNT+, Evaluation Type: Evaluation B (Post-1980)
[8] = Species/Cell Type: Bacillus subtilis (H17 vs M45), Assay Type: Rec-assay, spot test, DNA effects (bacterial DNA repair), Assay Code: REWT, Evaluation Type: Evaluation A (Pre-1980)
[9] = Species/Cell Type: Nonhuman, Assay Code: CCG+L, Evaluation Type: Evaluation A (Pre-1980)
[10] = Species/Cell Type: Syrian hamster embryo (SHE) cells, Assay Type: Cell transformation, clonal assay, Assay Code: CTC+, Evaluation Type: Evaluation A (Pre-1980)
[11] = Species/Cell Type: Salmonella typhimurium (one or more of the five standard strains: TA98, TA100, TA1535, TA1537, and TA1538), Assay Type: Histidine reverse gene mutation, Ames assay, Assay Code: SALT, Evaluation Type: Evaluation A (Pre-1980)

CS(=O)(=O)OCCNC[C@@H](O)[C@@H](O)CNCCOS(C)(=O)=O
mutagenic call (Species/Cell Type: Human lymphocytes, Assay Type: Sister-chromatid exchange (SCE) in vitro, Assay Code: SCL+D, Dose Response: With dose response, Evaluation Type: Evaluation A (Pre-1980)): active; positive | mutagenic call (Species/Cell Type: Human, Assay Type: Sister-chromatid exchange (SCE) in vitro, Assay Code: SC1+D, Dose Response: With dose response, Evaluation Type: Evaluation A (Pre-1980)): active; positive

[Be+2]
mutagenic call (Species/Cell Type: Bacillus subtilis (H17 vs M45), Assay Type: Rec-assay, spot test, DNA effects (bacterial DNA repair), Assay Code: REW-, Evaluation Type: Evaluation A (Pre-1980)): inactive; negative

CC(=O)N(O)c1ccc(/C=C\c2ccccc2)cc1
mutagenic call (Species/Cell Type: Human diploid fibroblasts, Assay Type: Unscheduled DNA synthesis (UDS) in vitro, DNA effects, Assay Code: UDH+, Evaluation Type: Evaluation A (Pre-1980)): active; positive | call (Species/Cell Type: Nonhuman, Assay Code: CCG+, Evaluation Type: Evaluation A (Pre-1980)): active; positive

COc1ccc(Cl)cc1C(=O)NCCc1ccc(S(=O)(=O)NC(=O)NC2CCCCC2)cc1
mutagenic call [1]: no conclusion | mutagenic call [2]: no conclusion

O=[N+]([O-])c1cccc2ncccc12
mutagenic call [3]: active; positive

C=CC(OC(C)=O)c1ccc2c(c1)OCO2 (centres undefined)
mutagenic call [4]: active; positive | mutagenic call [5]: active; positive | mutagenic call [3]: active; positive

NCCc1c[nH]c2ccc(O)cc12 (tested in a mixture with another compound)
mutagenic call (Species/Cell Type: Drosophila melanogaster, Assay Type: Aneuploidy, whole sex chromosome loss, chromosome aberrations, Assay Code: DACTM, Evaluation Type: Evaluation A (Pre-1980)): no conclusion | mutagenic call [6]: no conclusion

CC1CS(=O)(=O)CCN1/N=C/c1ccc([N+](=O)[O-])o1 (centres undefined)
mutagenic call [7]: active; positive

OC1c2cccc3ccc4cc5ccccc5c(c4c23)C1O (centres undefined)
mutagenic call (Species/Cell Type: Chinese hamster lung (V79) cells, Assay Type: Forward gene mutation at the HPRT or ouabain locus, Assay Code: V79-, Evaluation Type: Evaluation A (Pre-1980)): inactive; negative

OCC1COCO1 (centres undefined)
mutagenic call (Species/Cell Type: Mammalian polychromatic erythrocytes, Assay Type: Micronucleus test, chromosome aberrations, Assay Code: MNT-, Evaluation Type: Evaluation B (Post-1980)): inactive; negative

Cn1ncc2c(NC3=NCCO3)cccc21
mutagenic call [1]: no conclusion | mutagenic call [2]: no conclusion

CN(C)Cc1cc(Br)ccc1OCC(=O)N/N=C/c1ccccc1
mutagenic call (Species/Cell Type: Saccharomyces cerevisiae, Assay Type: Reverse gene mutation, Assay Code: YERT, Evaluation Type: Evaluation A (Pre-1980)): no conclusion

O=Nn1c2ccccc2c2ccccc21
mutagenic call (Species/Cell Type: Rat primary hepatocytes, Assay Type: Unscheduled DNA synthesis (UDS) in vitro, DNA effects, Assay Code: UDP-, Evaluation Type: Evaluation A (Pre-1980)): inactive; negative

O=S(=O)(O)c1cc(S(=O)(=O)O)c2c(N=Nc3ccc(S(=O)(=O)O)c4ccccc34)c(O)ccc2c1
mutagenic call [8]: no conclusion | mutagenic call (Species/Cell Type: Bacillus subtilis (H17 vs M45T), Assay Type: Rec-assay, spot test, DNA effects (bacterial DNA repair), Assay Code: REXT, Evaluation Type: Evaluation A (Pre-1980)): no conclusion | mutagenic call (Species/Cell Type: Saccharomyces cerevisiae, Assay Type: Mitotic recombination or gene conversion, Assay Code: YEC-, Evaluation Type: Evaluation A (Pre-1980)): inactive; negative

O=[N+]([O-])c1ccc(-c2ccccc2)cc1
mutagenic call [4]: active; positive | mutagenic call (Species/Cell Type: Neurospora crassa, Assay Type: Aneuploidy, chromosome aberrations, Assay Code: NEN-, Evaluation Type: Evaluation A (Pre-1980)): inactive; negative | call [9]: active; positive | mutagenic call (Species/Cell Type: Nonhuman, Assay Type: Sister-chromatid exchange (SCE) in vitro, Assay Code: SC2+, Evaluation Type: Evaluation B (Post-1980)): active; positive | mutagenic call (Species/Cell Type: Nonhuman, Assay Type: Sister-chromatid exchange (SCE) in vivo, Assay Code: SC3+D, Dose Response: With dose response, Evaluation Type: Evaluation B (Post-1980)): active; positive | mutagenic call (Species/Cell Type: Saccharomyces cerevisiae, Assay Type: Mitotic recombination or gene conversion, Assay Code: YEH-, Evaluation Type: Evaluation A (Pre-1980)): inactive; negative | mutagenic call [3]: active; positive | mutagenic call (Species/Cell Type: Salmonella typhimurium, Assay Type: Forward and reverse gene mutation, host-mediated assay, Assay Code: HMA+, Evaluation Type: Evaluation A (Pre-1980)): active; positive | mutagenic call (Species/Cell Type: Syrian hamster embryo (SA7/SHE) cells, Assay Type: Cell transformation, viral enhanced, Assay Code: CT7+, Evaluation Type: Evaluation A (Pre-1980)): active; positive | mutagenic call [10]: active; positive

CN(C#N)N=O
mutagenic call (Species/Cell Type: Nonhuman, Assay Type: Chromosome aberrations in vitro, Assay Code: CY&+, Evaluation Type: Evaluation A (Pre-1980)): active; positive | mutagenic call [3]: active; positive | mutagenic call [10]: active; positive

CC(=O)NO
mutagenic call (Species/Cell Type: Human lymphocytes or leukocytes, Assay Type: Chromosome aberrations in vitro, Assay Code: CY7-, Evaluation Type: Evaluation A (Pre-1980)): inactive; negative

O=S(=O)(O)c1ccc(N=Nc2ccc(N=Nc3c(O)c(S(=O)(=O)O)cc4cc(S(=O)(=O)O)ccc34)c(S(=O)(=O)O)c2)cc1
mutagenic call [11]: no conclusion

CN(C)c1ccc(N=Nc2cccc(CCl)c2)cc1
mutagenic call (Species/Cell Type: Drosophila melanogaster, Assay Type: Sex-linked recessive lethal gene mutation, Assay Code: SRLT, Evaluation Type: Evaluation A (Pre-1980)): no conclusion

COc1cc2c(c3oc(=O)c4c(c13)CCC4=O)[C@@H]1C(Cl)C(O)O[C@@H]1O2 (some centres undefined)
mutagenic call [11]: no conclusion

O=C1[C@H]2CC=CC[C@H]2C(=O)N1SC(Cl)(Cl)Cl
mutagenic call (Species/Cell Type: Aspergillus nidulans, Assay Type: Aneuploidy, chromosome aberrations, Assay Code: ASN-, Evaluation Type: Evaluation A (Pre-1980)): inactive; negative | mutagenic call (Species/Cell Type: Aspergillus nidulans, Assay Type: Mitotic recombination, Assay Code: ASG+, Evaluation Type: Evaluation A (Pre-1980)): active; positive | mutagenic call (Species/Cell Type: Bacillus subtilis (H17 vs M45), Assay Type: Rec-assay, spot test, DNA effects (bacterial DNA repair), Assay Code: REW+, Evaluation Type: Evaluation A (Pre-1980)): active; positive | mutagenic call (Species/Cell Type: Chinese hamster lung (V79) cells, Assay Type: Forward gene mutation at the HPRT or ouabain locus, Assay Code: V79+, Evaluation Type: Evaluation A (Pre-1980)): active; positive | mutagenic call (Species/Cell Type: Chinese hamster ovary (CHO) cells, Assay Type: Forward gene mutation at the HPRT locus, Assay Code: CHO+, Evaluation Type: Evaluation B (Post-1980)): active; positive | mutagenic call (Species/Cell Type: Drosophila melanogaster, Assay Type: Sex-linked recessive lethal gene mutation, Assay Code: SRL+, Evaluation Type: Evaluation A (Pre-1980)): active; positive | mutagenic call [6]: no conclusion | mutagenic call (Species/Cell Type: Escherichia coli WP2, Assay Type: Tryptophan reverse gene mutation, Assay Code: WP2+, Evaluation Type: Evaluation A (Pre-1980)): active; positive | mutagenic call (Species/Cell Type: Escherichia coli WP2 UVRA, Assay Type: Tryptophan reverse gene mutation, Assay Code: WPU+/-*, Activation: With metabolic activation, Evaluation Type: Evaluation A (Pre-1980)): inactive; positive without activation, negative with activation | mutagenic call [4]: active; positive | mutagenic call (Species/Cell Type: Human diploid fibroblasts, Assay Type: Unscheduled DNA synthesis (UDS) in vitro, DNA effects, Assay Code: UDH-, Evaluation Type: Evaluation A (Pre-1980)): inactive; negative | mutagenic call (Species/Cell Type: Human lymphocytes, Assay Type: Sister-chromatid exchange (SCE) in vitro, Assay Code: SCL+, Evaluation Type: Evaluation B (Post-1980)): active; positive | mutagenic call (Species/Cell Type: Human, Assay Type: Sister-chromatid exchange (SCE) in vitro, Assay Code: SC1+, Evaluation Type: Evaluation B (Post-1980)): active; positive | mutagenic call [7]: active; positive | mutagenic call (Species/Cell Type: Mouse, Sex: Male, Assay Type: Heritable translocation test, chromosome aberrations, Assay Code: HTT-, Evaluation Type: Evaluation A (Pre-1980)): inactive; negative | call [9]: active; positive | mutagenic call (Species/Cell Type: Nonhuman, Assay Type: Sister-chromatid exchange (SCE) in vitro, Assay Code: SC2+D, Dose Response: With dose response, Evaluation Type: Evaluation B (Post-1980)): active; positive | mutagenic call (Species/Cell Type: Rodents, Sex: Male, Assay Type: Dominant lethal test, Assay Code: DLT+, Evaluation Type: Evaluation A (Pre-1980)): active; positive | mutagenic call (Species/Cell Type: Saccharomyces cerevisiae, Assay Type: Mitotic recombination or gene conversion, Assay Code: YEC+, Evaluation Type: Evaluation A (Pre-1980)): active; positive | mutagenic call [5]: active; positive | mutagenic call [3]: active; positive | mutagenic call (Species/Cell Type: Salmonella typhimurium, Serratia marcesens, Assay Type: Forward and reverse gene mutation, host-mediated assay, Assay Code: HM2+, Evaluation Type: Evaluation A (Pre-1980)): active; positive | mutagenic call (Species/Cell Type: Salmonella typhimurium, Assay Type: Forward and reverse gene mutation, body fluid assay, Assay Code: BFU-, Evaluation Type: Evaluation A (Pre-1980)): inactive; negative

CCCCCCCC(=O)Oc1c(I)cc(C#N)cc1I
mutagenic call [8]: no conclusion
